Laboratory results from US20200308171A1, “BIFUNCTIONAL INHIBITORS WITH EGFR HAVING A E3 UBIQUITIN LIGASE MOIETY” (Hoffmann-La Roche Inc., priority 2017, published 2020).

Molecular target: T1, EGFR T790M/L858R/C797S (Homo sapiens, UniProt P00533, C797S/L858R/T790M)
T1 construct: expressed in transfected cells; host or cells: BaF3 (murine pro-B) cells stably transduced with pCDH lentiviral vector, PGK promoter
Assay: EGFR Degradation Assay (Cellular), FRET quantification of total EGFR
Type: cell-based
Details: BaF3 EGFR mutant cell line (EGFR T790M/L858R/C797S); 4-hour incubation; total EGFR FRET kit; top concentration 1 μM, 11 points; read-out: IC50 [nM] mutant EGFR degradation
Method: EGFR Degradation Assay (Cellular)
The BaF3 parental line was purchased from DSMZ and grown in RPMI media supplemented with 10% FBS and 10 ng/mL interleukin 3 (IL-3) (Thermo Fisher Scientific). EGFR mutants ([…]) were cloned into the pCDH lentiviral vector (SystemBio) under the control of a PGK promoter and confirmed by DNA sequencing. The resulting gene expression vector for each mutant was mixed with packaging vectors and cotransfected into 2×10E6 HEK293T cells (ATCC) in 10 mL of DMEM media to generate lentiviral particles according to the manufacturers protocol (Origene).
Three days post-transfection, the viral supernatant was harvested and filtered. In one well of a 12-well plate, 0.5 mL of viral supernatant was added to 2E6 Ba/F3 cells contained in 1.5 mL of RPMI media including 10% FBS, 10 ng/mL IL-3, and 5 μg/mL polybrene (Invitrogen). The plate was centrifuged at 2,000 rpm for 1 hour at room temperature and infected cells were kept in a tissue culture incubator overnight at 37° C. The cells were washed once in fresh BaF3 media and reseeded at 0.5E6 cells/well of a 12-well plate in media supplemented with 0.5 μg/mL puromycin. The cells were maintained in this media for 3 weeks. IL-3-independent, EGFR mutant transformed cells were routinely maintained in RPMI medium supplemented with 10% FBS.
RPMI 1640 no-phenol red medium and fetal bovine serum (FBS) were purchased from Gibco (Grand Island, N.Y., USA). EGFR total kit and EGFR phospho-Y1068 kit were purchased from Cisbio (Bedford, Mass., USA). BaF3 EGFR mutant cell lines (EGFR T790M/L858R/C797S) cell line was generated in house, according to the protocol reported above. Cell culture flasks and 384-well microplates were acquired from VWR (Radnor, Pa., USA).
EGFR degradation was determined based on quantification of FRET signal using EGFR total kit. The FRET signal detected correlates with total EGFR protein level in cells. Briefly, test compounds were added to the 384-well plate from a top concentration of 1 μM with 11 points, half log titration in quadruplicates. Then, BaF3 EGFR mutant cell lines (EGFR T790M/L858R/C797S) were added into 384-well plates at a cell density of 10000 cells per well. The plates were kept at 37° C. with 5% CO2 for 4 hours. After 4-hour incubation, 4× lysis buffer was added to the cells, and then microplate was agitated on plate shaker at 500 rpm for 30 minutes at room temperature. Next, total EGFR antibody solution was added to the cells and the cells were incubated for another 4 hours at room temperature. Finally, FRET signal was acquired on EnVision™ Multilabel Reader (PerkinElmer, Santa Clara, Calif., USA). The cells treated in the absence of the test compound were the negative control and lysis buffer with antibody solution only were the positive control.

T1 sequence (P00533 25-1210 T790M/C797S/L858R): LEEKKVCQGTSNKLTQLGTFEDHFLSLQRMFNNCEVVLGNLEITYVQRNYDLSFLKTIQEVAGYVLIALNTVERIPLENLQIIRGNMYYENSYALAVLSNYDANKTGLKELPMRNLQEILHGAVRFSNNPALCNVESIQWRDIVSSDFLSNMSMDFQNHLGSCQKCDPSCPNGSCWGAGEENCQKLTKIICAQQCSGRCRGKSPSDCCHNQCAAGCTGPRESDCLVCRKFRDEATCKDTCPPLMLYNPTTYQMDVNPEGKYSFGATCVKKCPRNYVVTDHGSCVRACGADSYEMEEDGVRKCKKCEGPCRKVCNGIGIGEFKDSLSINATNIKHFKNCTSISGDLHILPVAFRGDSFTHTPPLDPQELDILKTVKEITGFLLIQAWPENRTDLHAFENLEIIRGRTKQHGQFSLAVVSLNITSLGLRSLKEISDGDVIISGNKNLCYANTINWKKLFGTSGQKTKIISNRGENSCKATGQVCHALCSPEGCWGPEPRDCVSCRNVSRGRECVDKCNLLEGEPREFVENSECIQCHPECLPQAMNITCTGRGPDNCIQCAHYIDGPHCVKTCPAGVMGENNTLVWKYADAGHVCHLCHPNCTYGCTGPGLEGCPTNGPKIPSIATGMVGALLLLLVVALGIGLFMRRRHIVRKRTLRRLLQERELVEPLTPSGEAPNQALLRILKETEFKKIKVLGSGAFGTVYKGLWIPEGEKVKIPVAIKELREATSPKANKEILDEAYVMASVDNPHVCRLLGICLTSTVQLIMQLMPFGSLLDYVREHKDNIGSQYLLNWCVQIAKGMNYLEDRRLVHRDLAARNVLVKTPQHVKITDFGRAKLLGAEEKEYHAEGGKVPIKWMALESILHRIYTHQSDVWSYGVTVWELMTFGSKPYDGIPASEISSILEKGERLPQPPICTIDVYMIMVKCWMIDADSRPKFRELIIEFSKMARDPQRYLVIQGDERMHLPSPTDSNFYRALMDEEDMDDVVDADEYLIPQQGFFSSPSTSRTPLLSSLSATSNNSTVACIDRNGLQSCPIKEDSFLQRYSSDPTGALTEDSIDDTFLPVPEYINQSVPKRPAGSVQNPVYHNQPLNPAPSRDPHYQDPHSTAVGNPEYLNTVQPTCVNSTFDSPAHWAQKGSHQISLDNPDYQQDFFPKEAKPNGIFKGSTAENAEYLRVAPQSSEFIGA

DC50 [nM]	SMILES
5	CO[C@H]1CCN(c2nccc(Nc3cc4c(cn3)c(C(=O)NC3CCN(CCCC5CN(c6cccc7c6C(=O)N(C6CCC(=O)NC6=O)C7=O)C5)CC3)cn4C(C)C)n2)C[C@H]1F (mixture of isomers) [Example 24, N-[1-[3-[1-[2-[(3RS)-2,6-Dioxo-3-piperidyl]-1,3-dioxo-isoindolin-4-yl]azetidin-3-yl]propyl]-4-piperidyl]-6-[[2-[(3R,4S)-3-fluoro-4-methoxy-1-piperidyl]pyrimidin-4-yl]amino]-1-isopropyl-pyrrolo[3,2-c]pyridine-3-carboxamide]
85	CO[C@H]1CCN(c2nccc(Nc3cc4c(cn3)c(C(=O)NC3CCN(CCCCCCNc5cccc6c5C(=O)N(C5CCC(=O)NC5=O)C6=O)CC3)cn4C3CCCC3)n2)C[C@H]1F (mixture of isomers) [Example 10, 1-Cyclopentyl-N-[1-[6-[[2-[(3RS)-2,6-dioxo-3-piperidyl]-1,3-dioxo-isoindolin-4-yl]amino]hexyl]-4-piperidyl]-6-[[2-[(3R,4S)-3-fluoro-4-methoxy-1-piperidyl]pyrimidin-4-yl]amino]pyrrolo[3,2-c]pyridine-3-carboxamide]
41	CO[C@H]1CCN(c2nccc(Nc3cc4c(cn3)c(C(=O)NC3CCN(CCCCNc5cccc6c5C(=O)N(C5CCC(=O)NC5=O)C6=O)CC3)cn4C(C)C)n2)C[C@H]1F (mixture of isomers) [Example 14, N-[1-[4-[[2-[(3RS)-2,6-Dioxo-3-piperidyl]-1,3-dioxo-isoindolin-4-yl]amino]butyl]-4-piperidyl]-6-[[2-[(3R,4S)-3-fluoro-4-methoxy-1-piperidyl]pyrimidin-4-yl]amino]-1-isopropyl-pyrrolo[3,2-c]pyridine-3-carboxamide]
44	COC1CCN(c2nccc(Nc3cc4c(cn3)c(C(=O)NC3CCN(CCCCCCNc5cccc6c5C(=O)N(C5CCC(=O)NC5=O)C6=O)CC3)cn4C(C)C)n2)CC1(F)F (racemic) [Example 3, 6-[[2-[(4RS)-3,3-Difluoro-4-methoxy-1-piperidyl]pyrimidin-4-yl]amino]-N-[1-[6-[[2-[(3RS)-2,6-dioxo-3-piperidyl]-1,3-dioxo-isoindolin-4-yl]amino]hexyl]-4-piperidyl]-1-isopropyl-pyrrolo[3,2-c]pyridine-3-carboxamide]
46	COC1CCN(c2nccc(Nc3cc4c(cn3)c(N3CCC(C(=O)NC5CCN(CCCCCCNc6cccc7c6C(=O)N(C6CCC(=O)NC6=O)C7=O)CC5)C3)nn4C(C)C)n2)CC1 (racemic) [Example 6, (3RS)—N-[1-[6-[[2-[(3RS)-2,6-Dioxo-3-piperidyl]-1,3-dioxo-isoindolin-4-yl]amino]hexyl]-4-piperidyl]-1-[1-isopropyl-6-[[2-(4-methoxy-1-piperidyl)pyrimidin-4-yl]amino]pyrazolo[4,3-c]pyridin-3-yl]pyrrolidine-3-carboxamide]
2	CO[C@@H]1CCN(c2nccc(Nc3cc4c(cn3)c(C(=O)NC3CCN(CCCCCCNc5cccc6c5C(=O)N(C5CCC(=O)NC5=O)C6=O)CC3)nn4C(C)C)n2)C[C@@H]1F (mixture of isomers) [Example 21, N-[1-[6-[[2-[(3RS)-2,6-Dioxo-3-piperidyl]-1,3-dioxo-isoindolin-4-yl]amino]hexyl]-4-piperidyl]-6-[[2-[(3S,4R)-3-fluoro-4-methoxy-1-piperidyl]pyrimidin-4-yl]amino]-1-isopropyl-pyrazolo[4,3-c]pyridine-3-carboxamide]
15	CO[C@H]1CCN(c2nccc(Nc3cc4c(cn3)c(C(=O)NC3CCN(CCC[C@H]5CC[C@H](Nc6cccc7c6C(=O)N(C6CCC(=O)NC6=O)C7=O)CC5)CC3)cn4C(C)C)n2)C[C@H]1F (mixture of isomers) [Example 20, N-[1-[3-[4-[[2-[(3RS)-2,6-Dioxo-3-piperidyl]-1,3-dioxo-isoindolin-4-yl]amino]cyclohexyl]propyl]-4-piperidyl]-6-[[2-[(3R,4S)-3-fluoro-4-methoxy-l-piperidyl]pyrimidin-4-yl]amino]-1-isopropyl-pyrrolo[3,2-c]pyridine-3-carboxamide]
26	CO[C@H]1CCN(c2nccc(Nc3cc4c(cn3)c(C(=O)NC3CCN(CCCOC5CN(c6cccc7c6C(=O)N(C6CCC(=O)NC6=O)C7=O)C5)CC3)cn4C(C)C)n2)C[C@H]1F (mixture of isomers) [Example 22, N-[1-[3-[1-[2-[(3RS)-2,6-Dioxo-3-piperidyl]-1,3-dioxo-isoindolin-4-yl]azetidin-3-yl]oxypropyl]-4-piperidyl]-6-[[2-[(3R,4S)-3-fluoro-4-methoxy-l-piperidyl]pyrimidin-4-yl]amino]-1-isopropyl-pyrrolo[3,2-c]pyridine-3-carboxamide]
45	CO[C@H]1CCN(c2nccc(Nc3cc4c(cn3)c(C(=O)NC3CCN(CCCOC5CCN(c6cccc7c6C(=O)N(C6CCC(=O)NC6=O)C7=O)CC5)CC3)cn4C3CCCC3)n2)C[C@H]1F (single isomer, unassigned) [Example 18]
46	CO[C@@H]1CCN(c2nccc(Nc3cc4c(cn3)c(C(=O)NC3CCN(CCCCCCNc5cccc6c5C(=O)N(C5CCC(=O)NC5=O)C6=O)CC3)cn4C(C)C)n2)C[C@@H]1F (mixture of isomers) [Example 8, N-[1-[6-[[2-[(3RS)-2,6-Dioxo-3-piperidyl]-1,3-dioxo-isoindolin-4-yl]amino]hexyl]-4-piperidyl]-6-[[2-[(3S,4R)-3-fluoro-4-methoxy-1-piperidyl]pyrimidin-4-yl]amino]-1-isopropyl-pyrrolo[3,2-c]pyridine-3-carboxamide]
